Legend:
[1] = target: Vascular endothelial growth factor receptor 1 (Homo sapiens) (UniProt P17948); test: Inhibition of recombinant human Flt1 (783 to end residues) at 1 uM using KKKSPGEYVNIEFG as substrate after 40 mins in presence of [gamma-33P]ATP by scintillation counting method
[2] = target: DNA-dependent protein kinase catalytic subunit (Homo sapiens) (UniProt P78527); test: Inhibition of recombinant full-length human DNA-PK at 1 uM using GST-cMyc-p53 as substrate after 40 mins in presence of [gamma-33P]ATP by scintillation counting method
Chain of DNA-dependent protein kinase catalytic subunit (Homo sapiens) (P78527 whole entry): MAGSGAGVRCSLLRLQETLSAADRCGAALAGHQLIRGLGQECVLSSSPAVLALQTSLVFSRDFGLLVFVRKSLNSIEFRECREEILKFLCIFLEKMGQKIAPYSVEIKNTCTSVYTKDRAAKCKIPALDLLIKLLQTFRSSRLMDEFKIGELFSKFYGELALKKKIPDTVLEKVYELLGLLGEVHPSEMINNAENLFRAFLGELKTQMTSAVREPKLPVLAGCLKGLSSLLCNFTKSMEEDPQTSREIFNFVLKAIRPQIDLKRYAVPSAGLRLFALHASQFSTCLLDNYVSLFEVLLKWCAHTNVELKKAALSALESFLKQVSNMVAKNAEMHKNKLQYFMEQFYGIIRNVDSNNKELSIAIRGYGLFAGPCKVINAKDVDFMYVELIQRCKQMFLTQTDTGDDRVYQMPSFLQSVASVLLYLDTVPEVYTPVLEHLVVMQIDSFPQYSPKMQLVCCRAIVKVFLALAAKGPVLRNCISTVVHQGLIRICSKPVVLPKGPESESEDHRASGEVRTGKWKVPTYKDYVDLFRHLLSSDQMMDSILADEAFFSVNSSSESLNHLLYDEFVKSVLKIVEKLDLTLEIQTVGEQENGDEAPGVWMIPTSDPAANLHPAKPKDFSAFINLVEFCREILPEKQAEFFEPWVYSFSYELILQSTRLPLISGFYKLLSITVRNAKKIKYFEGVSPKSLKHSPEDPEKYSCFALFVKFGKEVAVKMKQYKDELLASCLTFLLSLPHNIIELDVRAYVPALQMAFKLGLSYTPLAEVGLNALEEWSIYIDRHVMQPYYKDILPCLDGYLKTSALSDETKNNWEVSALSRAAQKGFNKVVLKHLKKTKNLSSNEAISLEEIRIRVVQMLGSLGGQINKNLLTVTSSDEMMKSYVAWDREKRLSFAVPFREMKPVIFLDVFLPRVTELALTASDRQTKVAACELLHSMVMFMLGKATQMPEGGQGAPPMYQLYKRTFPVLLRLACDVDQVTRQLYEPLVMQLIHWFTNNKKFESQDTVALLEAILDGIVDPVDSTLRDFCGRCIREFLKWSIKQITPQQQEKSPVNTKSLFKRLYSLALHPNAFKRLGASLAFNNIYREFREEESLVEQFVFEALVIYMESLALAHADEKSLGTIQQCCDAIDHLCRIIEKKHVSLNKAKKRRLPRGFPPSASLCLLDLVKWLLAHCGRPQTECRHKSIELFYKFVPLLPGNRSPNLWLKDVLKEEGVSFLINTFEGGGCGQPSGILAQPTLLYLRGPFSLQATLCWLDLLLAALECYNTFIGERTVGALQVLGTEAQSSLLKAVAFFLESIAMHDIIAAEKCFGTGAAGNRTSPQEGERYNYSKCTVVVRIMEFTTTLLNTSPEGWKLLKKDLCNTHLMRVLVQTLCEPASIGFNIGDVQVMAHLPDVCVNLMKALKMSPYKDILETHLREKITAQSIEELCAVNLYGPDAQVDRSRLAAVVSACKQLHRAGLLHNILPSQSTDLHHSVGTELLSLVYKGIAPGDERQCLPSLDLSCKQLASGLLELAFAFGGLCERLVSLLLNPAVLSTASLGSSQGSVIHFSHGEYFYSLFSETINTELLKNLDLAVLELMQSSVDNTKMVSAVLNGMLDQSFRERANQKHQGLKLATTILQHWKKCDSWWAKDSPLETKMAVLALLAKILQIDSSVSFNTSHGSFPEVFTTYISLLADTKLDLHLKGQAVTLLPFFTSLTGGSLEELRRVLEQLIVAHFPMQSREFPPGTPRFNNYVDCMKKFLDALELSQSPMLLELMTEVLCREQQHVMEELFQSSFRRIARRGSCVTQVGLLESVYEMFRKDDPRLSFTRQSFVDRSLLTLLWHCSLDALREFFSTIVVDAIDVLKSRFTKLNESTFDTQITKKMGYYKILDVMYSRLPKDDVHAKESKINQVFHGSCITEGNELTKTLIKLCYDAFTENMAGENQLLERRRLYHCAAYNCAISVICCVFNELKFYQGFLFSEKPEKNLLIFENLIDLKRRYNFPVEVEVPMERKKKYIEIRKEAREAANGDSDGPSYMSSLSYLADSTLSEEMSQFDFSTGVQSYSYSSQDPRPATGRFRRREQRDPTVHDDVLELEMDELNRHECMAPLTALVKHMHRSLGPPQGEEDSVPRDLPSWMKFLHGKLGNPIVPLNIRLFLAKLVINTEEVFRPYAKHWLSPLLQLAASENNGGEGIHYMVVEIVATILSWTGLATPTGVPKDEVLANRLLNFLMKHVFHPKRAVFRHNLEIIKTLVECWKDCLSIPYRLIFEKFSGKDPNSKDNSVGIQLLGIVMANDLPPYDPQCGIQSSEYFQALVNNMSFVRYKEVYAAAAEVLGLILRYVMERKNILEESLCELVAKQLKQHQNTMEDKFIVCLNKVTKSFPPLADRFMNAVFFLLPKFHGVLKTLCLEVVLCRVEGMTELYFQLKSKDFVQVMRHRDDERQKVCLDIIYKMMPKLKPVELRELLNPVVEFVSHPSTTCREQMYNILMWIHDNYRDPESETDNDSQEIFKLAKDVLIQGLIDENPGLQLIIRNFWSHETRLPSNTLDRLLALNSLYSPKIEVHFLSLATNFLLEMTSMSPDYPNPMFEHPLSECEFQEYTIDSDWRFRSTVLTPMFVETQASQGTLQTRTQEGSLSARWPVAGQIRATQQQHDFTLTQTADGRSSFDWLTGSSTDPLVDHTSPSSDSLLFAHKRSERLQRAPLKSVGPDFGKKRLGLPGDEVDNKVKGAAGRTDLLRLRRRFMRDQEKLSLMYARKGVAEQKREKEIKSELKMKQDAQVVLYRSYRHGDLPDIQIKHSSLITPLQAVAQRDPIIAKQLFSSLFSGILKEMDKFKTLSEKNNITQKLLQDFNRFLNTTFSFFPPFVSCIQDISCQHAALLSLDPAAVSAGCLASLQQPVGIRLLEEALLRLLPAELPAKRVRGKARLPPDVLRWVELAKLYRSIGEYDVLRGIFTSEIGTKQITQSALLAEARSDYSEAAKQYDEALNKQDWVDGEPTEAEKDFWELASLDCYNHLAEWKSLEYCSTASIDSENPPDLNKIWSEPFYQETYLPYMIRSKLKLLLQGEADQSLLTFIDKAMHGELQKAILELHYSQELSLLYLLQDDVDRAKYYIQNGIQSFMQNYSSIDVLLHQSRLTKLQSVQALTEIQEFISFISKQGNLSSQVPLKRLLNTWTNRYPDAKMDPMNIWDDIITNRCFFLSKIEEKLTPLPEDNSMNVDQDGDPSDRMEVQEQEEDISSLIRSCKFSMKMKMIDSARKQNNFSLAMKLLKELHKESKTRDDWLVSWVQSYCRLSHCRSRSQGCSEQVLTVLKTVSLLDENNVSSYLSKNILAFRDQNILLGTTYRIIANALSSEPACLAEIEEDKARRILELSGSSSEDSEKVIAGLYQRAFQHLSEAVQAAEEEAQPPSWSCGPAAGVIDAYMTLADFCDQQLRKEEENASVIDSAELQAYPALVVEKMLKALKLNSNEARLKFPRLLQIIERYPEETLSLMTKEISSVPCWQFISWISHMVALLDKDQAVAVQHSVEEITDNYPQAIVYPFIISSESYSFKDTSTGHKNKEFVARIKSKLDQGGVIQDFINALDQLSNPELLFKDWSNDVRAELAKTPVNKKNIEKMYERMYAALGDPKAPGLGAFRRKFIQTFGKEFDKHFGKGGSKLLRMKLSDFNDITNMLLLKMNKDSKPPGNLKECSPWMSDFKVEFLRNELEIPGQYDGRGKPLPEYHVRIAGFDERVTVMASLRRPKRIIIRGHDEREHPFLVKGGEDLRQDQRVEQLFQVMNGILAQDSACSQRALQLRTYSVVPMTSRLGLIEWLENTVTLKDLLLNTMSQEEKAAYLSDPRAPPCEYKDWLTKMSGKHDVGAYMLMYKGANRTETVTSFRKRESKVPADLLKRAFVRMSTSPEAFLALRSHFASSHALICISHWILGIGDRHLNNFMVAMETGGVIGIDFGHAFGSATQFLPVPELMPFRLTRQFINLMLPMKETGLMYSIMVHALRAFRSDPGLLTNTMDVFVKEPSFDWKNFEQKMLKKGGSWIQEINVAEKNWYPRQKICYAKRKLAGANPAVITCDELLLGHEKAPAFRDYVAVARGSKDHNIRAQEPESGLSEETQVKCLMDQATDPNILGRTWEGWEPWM

[3] = target: Serine/threonine-protein kinase Nek2 (Homo sapiens) (UniProt P51955); test: Inhibition of recombinant full-length human NEK2 at 1 uM using myelin basic protein as substrate after 40 mins in presence of [gamma-33P]ATP by scintillation counting method
[4] = target: Death-associated protein kinase 3 (Homo sapiens) (UniProt O43293); test: Inhibition of recombinant human ZIPK (1 to 290 residues) at 1 uM using KKLNRTLSFAEPG as substrate after 40 mins in presence of [gamma-33P]ATP by scintillation counting method
Chain of Death-associated protein kinase 3 (Homo sapiens) (O43293 whole entry, looked up, the tested form may be a part): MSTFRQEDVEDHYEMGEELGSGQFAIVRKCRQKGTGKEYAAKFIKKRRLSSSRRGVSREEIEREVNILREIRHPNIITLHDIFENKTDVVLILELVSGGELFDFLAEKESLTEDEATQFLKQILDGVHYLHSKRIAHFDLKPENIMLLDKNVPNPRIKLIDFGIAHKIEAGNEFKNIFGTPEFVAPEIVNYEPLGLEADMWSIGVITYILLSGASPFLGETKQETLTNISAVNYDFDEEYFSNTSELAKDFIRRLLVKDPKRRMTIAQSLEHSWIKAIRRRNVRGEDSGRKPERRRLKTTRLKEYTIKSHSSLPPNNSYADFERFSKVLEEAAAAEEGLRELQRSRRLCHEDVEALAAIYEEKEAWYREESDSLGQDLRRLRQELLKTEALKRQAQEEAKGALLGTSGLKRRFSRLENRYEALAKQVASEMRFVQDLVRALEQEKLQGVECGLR

[5] = target: Mitogen-activated protein kinase kinase kinase 20 (Homo sapiens) (UniProt Q9NYL2); test: Inhibition of recombinant full-length human ZAK at 1 uM using myelin basic protein as substrate after 40 mins in presence of [gamma-33P]ATP by scintillation counting method
[6] = target: Serine/threonine-protein kinase MARK2 (Homo sapiens) (UniProt Q7KZI7); test: Inhibition of recombinant full-length human PAR-1Balpha at 1 uM using KKKVSRSGLYRSPSMPENLNRPR as substrate after 40 mins in presence of [gamma-33P]ATP by scintillation counting method
[7] = target: Mitogen-activated protein kinase kinase kinase kinase 4 (Homo sapiens) (UniProt O95819); test: Inhibition of recombinant human MAP4K4 (1 to 328 residues) at 1 uM using RLGRDKYKTLRQIRQ as substrate after 40 mins in presence of [gamma-33P]ATP by scintillation counting method
[8] = tested on: PI3-kinase p110-alpha/p85-alpha (Homo sapiens), P27986+P42336 [E542K]; test: Inhibition of recombinant full-length human p110a E542K mutant/p85a at 1 uM using phosphatidylinositol 4,5-bisphosphate as substrate after 40 mins in presence of [gamma-33P]ATP by scintillation counting method; assay type: protein-complex assay
[9] = target: Aurora kinase A (Homo sapiens) (UniProt O14965); test: Inhibition of recombinant full-length human Aurora-A at 1 uM using LRRASLG (kemptide) as substrate after 40 mins in presence of [gamma-33P]ATP by scintillation counting method
[10] = target: Platelet-derived growth factor receptor alpha (Homo sapiens) (UniProt P16234); test: Inhibition of recombinant human PDGFRalpha (550 to end residues) at 1 uM using poly(Glu,Tyr) 4:1 as substrate after 40 mins in presence of [gamma-33P]ATP by scintillation counting method
[11] = target: Tyrosine-protein kinase HCK (Homo sapiens) (UniProt P08631); test: Inhibition of recombinant human Hck (230 to 497 residues) at 1 uM using KVEKIGEGTYGVVYK (Cdc2 peptide) as substrate after 40 mins in presence of [gamma-33P]ATP by scintillation counting method
Chain of Tyrosine-protein kinase HCK (Homo sapiens) (P08631 2-526 limits assumed): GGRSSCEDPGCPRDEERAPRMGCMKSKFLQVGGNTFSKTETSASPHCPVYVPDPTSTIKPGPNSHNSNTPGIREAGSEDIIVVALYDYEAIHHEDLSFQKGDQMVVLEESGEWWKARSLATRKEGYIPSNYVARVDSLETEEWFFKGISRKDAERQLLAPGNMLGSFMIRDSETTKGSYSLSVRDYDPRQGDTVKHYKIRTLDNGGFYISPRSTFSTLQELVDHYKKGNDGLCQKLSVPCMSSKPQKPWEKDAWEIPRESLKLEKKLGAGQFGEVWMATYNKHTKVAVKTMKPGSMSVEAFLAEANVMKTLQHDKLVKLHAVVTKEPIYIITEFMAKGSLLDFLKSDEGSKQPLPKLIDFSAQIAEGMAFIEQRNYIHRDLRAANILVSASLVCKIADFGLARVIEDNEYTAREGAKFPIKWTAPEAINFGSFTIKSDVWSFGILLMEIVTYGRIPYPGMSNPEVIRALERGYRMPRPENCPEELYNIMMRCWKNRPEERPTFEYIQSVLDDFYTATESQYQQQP

[12] = target: Tyrosine-protein kinase Lck (Homo sapiens) (UniProt P06239); test: Inhibition of recombinant full-length human Lck at 1 uM using KVEKIGEGTYGVVYK (Cdc2 peptide) as substrate after 40 mins in presence of [gamma-33P]ATP by scintillation counting method
[13] = target: Muscle, skeletal receptor tyrosine-protein kinase (Homo sapiens) (UniProt O15146); test: Inhibition of recombinant human MUSK (530 to end residues) at 1 uM using myelin basic protein as substrate after 40 mins in presence of [gamma-33P]ATP by scintillation counting method
[14] = target: Beta-adrenergic receptor kinase 1 (Homo sapiens) (UniProt P25098); test: Inhibition of recombinant full-length human GRK2 at 1 uM using casein as substrate after 40 mins in presence of [gamma-33P]ATP by scintillation counting method
[15] = tested on: Hepatocyte growth factor receptor (Homo sapiens), P08581 [D1246N]; test: Inhibition of recombinant human Met D1246N mutant (974 to end residues) at 1 uM using KKKGQEEEYVFIE as substrate after 40 mins in presence of [gamma-33P]ATP by scintillation counting method
[16] = target: Cyclin-dependent kinase 5/CDK5 activator 1 (Homo sapiens) (UniProt Q00535+Q15078); test: Inhibition of recombinant full-length human CDK5/P25 at 1 uM using histone H1 as substrate after 40 mins in presence of [gamma-33P]ATP by scintillation counting method; assay type: protein-complex assay
[17] = target: PI3K p110 alpha/p85 alpha (Mus musculus) (UniProt P26450+P42337); test: Inhibition of recombinant full-length mouse p110a E542K mutant/p85a at 1 uM using phosphatidylinositol 4,5-bisphosphate as substrate after 40 mins in presence of [gamma-33P]ATP by scintillation counting method; assay type: protein-complex assay
[18] = target: Serine/threonine-protein kinase tousled-like 1 (Homo sapiens) (UniProt Q9UKI8); test: Inhibition of recombinant full-length human TLK1 at 1 uM using casein as substrate after 40 mins in presence of [gamma-33P]ATP by scintillation counting method
[19] = target: Tyrosine-protein kinase HCK (Homo sapiens) (UniProt P08631); test: Inhibition of recombinant human activated Hck (230 to 497 residues) at 1 uM using GGMEDIYFEFMGGKKK as substrate after 40 mins in presence of [gamma-33P]ATP by scintillation counting method
[20] = target: Tyrosine-protein kinase receptor UFO (Homo sapiens) (UniProt P30530); test: Inhibition of recombinant human Axl (473 to end residues) at 1 uM using KKSRGDYMTMQIG as substrate after 40 mins in presence of [gamma-33P]ATP by scintillation counting method
[21] = target: Fibroblast growth factor receptor 1 (Homo sapiens) (UniProt P11362); test: Inhibition of recombinant human FGFR1 (456 to 765 residues) at 1 uM using KKKSPGEYVNIEFG as substrate after 40 mins in presence of [gamma-33P]ATP by scintillation counting method
[22] = tested on: Epidermal growth factor receptor (Homo sapiens), P00533 [T790M]; test: Inhibition of recombinant human EGFR T790M mutant (696 to end residues) at 1 uM using GGMEDIYFEFMGGKKK as substrate after 40 mins in presence of [gamma-33P]ATP by scintillation counting method
[23] = target: Protein kinase C epsilon type (Homo sapiens) (UniProt Q02156); test: Inhibition of recombinant human PKCepsilon (2 to end residues) at 1 uM using ERMRPRKRQGSVRRRV as substrate after 40 mins in presence of [gamma-33P]ATP by scintillation counting method
[24] = target: Serine/threonine-protein kinase ULK2 (Homo sapiens) (UniProt Q8IYT8); test: Inhibition of recombinant human ULK2 (1 to 306 residues) at 1 uM using casein as substrate after 40 mins in presence of [gamma-33P]ATP by scintillation counting method

SMILES: CS(=O)(=O)c1ccc(-n2nc(-c3cnc4[nH]ccc4c3)c3c(N)ncnc32)cc1
- inhibition [1]: 59%
- inhibition [2]: 59%
- inhibition [3]: 3%
- inhibition [4]: 0%
- inhibition [5]: 17%
- inhibition [6]: 6%
- inhibition [7]: -8%
- inhibition [8]: 7%
- inhibition [9]: 15%
- inhibition [10]: -6%
- inhibition [11]: 50%
- inhibition [12]: 55%
- inhibition [13]: -2%
- inhibition [14]: 5%
- inhibition [15]: 3%
- inhibition [16]: -1%
- inhibition [17]: 11%
- inhibition [18]: 3%
- inhibition [19]: 93%
- inhibition [20]: 9%
- inhibition [21]: 63%
- inhibition [22]: 22%
- inhibition [23]: 2%
- inhibition [24]: 5%
